Test results as given in publication PMC4303209, “A novel phosphatidylinositol 3-kinase (PI3K) inhibitor directs a potent FOXO-dependent, p53-independent cell cycle arrest phenotype characterized by the differential induction of a subset of FOXO-regulated genes” (Breast Cancer Research : BCR, 2014).

Test system: MCF-7 breast cancer cells
Assay: Microarray gene expression analysis (Agilent whole human genome 4 x 44K; compound vs DMSO, LIMMA log2 fold change)
Assay type: cell-based

Cn1ncc2c(N3CCOCC3)nc(-c3cccc(O)c3)nc21 [ETP-45658]
PDGFRB log2FC (gene PDGFRB (5159), apoptosis genes): 0.022
PEG3 log2FC (gene PEG3 (5178), apoptosis genes): 0.028
PEG10 log2FC (gene PEG10 (23089), apoptosis genes): 0.064
PF4 log2FC (gene PF4 (5196), apoptosis genes): -0.049
PHLDA3 log2FC (gene PHLDA3 (23612), apoptosis genes): -0.007
PIK3CG log2FC (gene PIK3CG (5294), apoptosis genes): -0.029
PKP1 log2FC (gene PKP1 (5317), apoptosis genes): -0.004
PLEKHG5 log2FC (gene PLEKHG5 (57449), apoptosis genes): 0.079
PLSCR3 log2FC (gene PLSCR3 (57048), apoptosis genes): -0.068
POLB log2FC (gene POLB (5423), apoptosis genes): 0.060
log2FC (gene POLD4 (Gene 57804), cell cycle genes): -0.353
POR log2FC (gene POR (5447), apoptosis genes): 0.00332
POU3F4 log2FC (gene POU3F4 (5456), apoptosis genes): -0.034
POU4F1 log2FC (gene POU4F1, apoptosis genes): 0.016
log2FC (gene PPAT (Gene 10606), cell cycle genes): 0.187
log2FC (gene PPP1CA (Gene 5499), cell cycle genes): -0.227
log2FC (gene PPP2CA (Gene 5515), cell cycle genes): -0.322
PPP2R1A log2FC (gene PPP2R1A (5518), apoptosis genes): -0.055
PRAMEF8 log2FC (gene PRAMEF8 (391002), apoptosis genes): 0.019
PRAMEF10 log2FC (gene PRAMEF10 (343071), apoptosis genes): 0.00225
log2FC (gene PRKACB (Gene 5567), cell cycle genes): 0.355
log2FC PRKAG3 (gene PRKAG3 (Gene 53632), cell cycle genes): -0.00189
PRKRA log2FC (gene PRKRA (8575), apoptosis genes): 0.029
PRLR log2FC (gene PRLR (5618), apoptosis genes): -0.012
PROC log2FC (gene PROC (5624), apoptosis genes): 0.006
PROP1 log2FC (gene PROP1 (5626), apoptosis genes): -0.275
PSMA1 log2FC (gene PSMA1 (5682), apoptosis genes): 0.045
log2FC (gene PSMA2 (Gene 5683), cell cycle genes): 0.460
log2FC (gene PSMA3 (Gene 5684), cell cycle genes): 0.270
PSMA5 log2FC (gene PSMA5 (5686), apoptosis genes): -0.038
log2FC PSMA5 (gene PSMA5 (Gene 5686), cell cycle genes): -0.038
PSMA7 log2FC (gene PSMA7 (5688), apoptosis genes): 0.359
log2FC PSMA7 (gene PSMA7 (Gene 5688), cell cycle genes): 0.359
PSMB3 log2FC (gene PSMB3 (5691), apoptosis genes): -0.030
log2FC (gene PSMB4 (Gene 5692), cell cycle genes): 0.132
PSMB7 log2FC (gene PSMB7 (5695), apoptosis genes): -0.00851
log2FC PSMB7 (gene PSMB7 (Gene 5695), cell cycle genes): -0.00851
PSMB8 log2FC (gene PSMB8 (5696), apoptosis genes): -0.045
PSMC4 log2FC (gene PSMC4 (5704), apoptosis genes): -0.021
log2FC PSMC4 (gene PSMC4 (Gene 5704), cell cycle genes): -0.021
PSMD2 log2FC (gene PSMD2 (5708), apoptosis genes): 0.090
PSMD13 log2FC (gene PSMD13 (5719), apoptosis genes): -0.031
log2FC (gene PSMD14 (Gene 10213), cell cycle genes): 0.447
log2FC (gene PSME1 (Gene 5720), cell cycle genes): 0.322
PSME2 log2FC (gene PSME2 (5721), apoptosis genes): 0.039
log2FC (gene PTTG1 (Gene 9232), cell cycle genes): -0.269
PYCARD log2FC (gene PYCARD (29108), apoptosis genes): -0.070
log2FC (gene RAB11FIP3 (Gene 9727), cell cycle genes): -0.225
log2FC RAD51C (gene RAD51C (Gene 5889), cell cycle genes): -0.019
log2FC RAE1 (gene RAE1 (Gene 8480), cell cycle genes): 0.005
RAF1 log2FC (gene RAF1 (5894), apoptosis genes): -0.038
log2FC (gene RALA (Gene 5898), cell cycle genes): 0.348
log2FC (gene RALB (Gene 5899), cell cycle genes): 0.324
RAMP2 log2FC (gene RAMP2 (10266), apoptosis genes): -0.017
log2FC RANGAP1 (gene RANGAP1 (Gene 5905), cell cycle genes): -0.026
RAPSN log2FC (gene RAPSN (5913), apoptosis genes): -0.022
RARB log2FC (gene RARB (5915), apoptosis genes): 0.00564
RASSF6 log2FC (gene RASSF6 (166824), apoptosis genes): 0.042
log2FC (gene RBBP8 (Gene 5932), cell cycle genes): 0.568
log2FC (gene RBL1 (Gene 5933), cell cycle genes): 0.284
log2FC (gene RBM7 (Gene 10179), cell cycle genes): 0.349
log2FC (gene RCC1 (Gene 1104), cell cycle genes): -0.365
log2FC REEP4 (gene REEP4 (Gene 80346), cell cycle genes): -0.031
RET log2FC (gene RET (5979), apoptosis genes): -0.021
RHOT2 log2FC (gene RHOT2 (89941), apoptosis genes): -0.087
log2FC RPA2 (gene RPA2 (Gene 6118), cell cycle genes): 0.00567
RPS3 log2FC (gene RPS3 (6188), apoptosis genes): 0.020
RPS6KA2 log2FC (gene RPS6KA2 (6196), apoptosis genes): 0.035
log2FC (gene RPS6KB1 (Gene 6198), cell cycle genes): 0.426
RRN3 log2FC (gene RRN3 (653390), apoptosis genes): -0.022
log2FC (gene RSPO1 (Gene 284654), cell cycle genes): -0.127
RYR2 log2FC (gene RYR2 (6262), apoptosis genes): -0.020
S100A9 log2FC (gene S100A9 (6280), apoptosis genes): 0.039
S100A14 log2FC (gene S100A14 (57402), apoptosis genes): 0.034
log2FC (gene SART1 (Gene 9092), cell cycle genes): -0.304
SCIN log2FC (gene SCIN (85477), apoptosis genes): -0.012
log2FC (gene SEH1L (Gene 81929), cell cycle genes): -0.373
SEMA5A log2FC (gene SEMA5A (9037), apoptosis genes): -0.032
log2FC SENP2 (gene SENP2 (Gene 59343), cell cycle genes): -0.00743
SERINC3 log2FC (gene SERINC3 (10955), apoptosis genes): 0.046
SERPINE1 log2FC (gene SERPINE1 (5054), apoptosis genes): -0.036
log2FC (gene SESN1 (Gene 27244), cell cycle genes): 0.237
SHF log2FC (gene SHF (90525), apoptosis genes): 0.026
SKIL log2FC (gene SKIL (6498), apoptosis genes): 0.046
log2FC SKIL (gene SKIL (Gene 6498), cell cycle genes): 0.046
log2FC (gene SLBP (Gene 7884), cell cycle genes): 0.333
SLC25A6 log2FC (gene SLC25A6 (293), apoptosis genes): 0.025
log2FC SLC26A8 (gene SLC26A8 (Gene 116369), cell cycle genes): -0.003
SLC40A1 log2FC (gene SLC40A1 (30061), apoptosis genes): -0.005
SMAD1 log2FC (gene SMAD1 (4086), apoptosis genes): -0.074
SMNDC1 log2FC (gene SMNDC1 (10285), apoptosis genes): -0.102
SOD1 log2FC (gene SOD1 (6647), apoptosis genes): 0.073
SOS1 log2FC (gene SOS1 (6654), apoptosis genes): 0.035
SOX8 log2FC (gene SOX8 (30812), apoptosis genes): -0.391
log2FC SPO11 (gene SPO11 (Gene 23626), cell cycle genes): 0.008
SPTAN1 log2FC (gene SPTAN1 (6709), apoptosis genes): 0.094
log2FC (gene SRC (Gene 6714), cell cycle genes): -0.316
log2FC (gene STAG1 (Gene 10274), cell cycle genes): 0.343
STK3 log2FC (gene STK3 (6788), apoptosis genes): 0.083
SULF1 log2FC (gene SULF1 (23213), apoptosis genes): -0.096
log2FC (gene SUPT5H (Gene 6829), cell cycle genes): -0.331
log2FC (gene SUV39H2 (Gene 79723), cell cycle genes): -0.388
SYCP2 log2FC (gene SYCP2 (10388), apoptosis genes): 0.016
log2FC SYCP2 (gene SYCP2 (Gene 10388), cell cycle genes): 0.016
log2FC SYCP3 (gene SYCP3 (Gene 50511), cell cycle genes): 0.00367
log2FC (gene TAF2 (Gene 6873), cell cycle genes): 0.361
log2FC TAF6 (gene TAF6 (Gene 6878), cell cycle genes): 0.055
log2FC (gene TAOK2 (Gene 9344), cell cycle genes): -0.736
TEK log2FC (gene TEK (7010), apoptosis genes): -0.008
log2FC (gene TEX14 (Gene 56155), cell cycle genes): 0.240
log2FC (gene TEX15 (Gene 56154), cell cycle genes): 0.238
TFAP2D log2FC (gene TFAP2D (83741), apoptosis genes): -0.029
log2FC (gene TGFA (Gene 7039), cell cycle genes): -0.305
TGFB2 log2FC (gene TGFB2 (7042), apoptosis genes): -0.011
log2FC TGFB2 (gene TGFB2 (Gene 7042), cell cycle genes): -0.011
THEM4 log2FC (gene THEM4 (117145), apoptosis genes): -0.054
log2FC THOC5 (gene THOC5 (Gene 8563), cell cycle genes): 0.010
TMBIM4 log2FC (gene TMBIM4 (51643), apoptosis genes): 0.025
log2FC (gene TMEM67 (Gene 91147), cell cycle genes): 0.184
TMEM102 log2FC (gene TMEM102 (284114), apoptosis genes): -0.101
TNFRSF1B log2FC (gene TNFRSF1B (7133), apoptosis genes): -0.022
TNFRSF8 log2FC (gene TNFRSF8 (943), apoptosis genes): 0.055
TNFRSF10C log2FC (gene TNFRSF10C (8794), apoptosis genes): 0.00147
TNFSF8 log2FC (gene TNFSF8 (944), apoptosis genes): -0.043
TNFSF9 log2FC (gene TNFSF9 (8744), apoptosis genes): 0.017
TNFSF10 log2FC (gene TNFSF10 (8743), apoptosis genes): -0.021
TNFSF12 log2FC (gene TNFSF12 (8742), apoptosis genes): 0.112
TNFSF14 log2FC (gene TNFSF14 (8740), apoptosis genes): 0.017
TNFSF15 log2FC (gene TNFSF15 (9966), apoptosis genes): 0.027
TNFSF18 log2FC (gene TNFSF18 (8995), apoptosis genes): 0.00185
log2FC (gene TP73 (Gene 7161), cell cycle genes): -0.503
log2FC (gene TPD52L1 (Gene 7164), cell cycle genes): 0.379
TPX2 log2FC (gene TPX2 (22974), apoptosis genes): 0.049
TRAF2 log2FC (gene TRAF2 (7186), apoptosis genes): -0.056
TRAF3IP2 log2FC (gene TRAF3IP2 (10758), apoptosis genes): -0.070
log2FC TRIP13 (gene TRIP13 (Gene 9319), cell cycle genes): 0.007
log2FC (gene TUBGCP6 (Gene 85378), cell cycle genes): -0.470
TXNDC5 log2FC (gene TXNDC5 (81567), apoptosis genes): 0.070
log2FC TYMS (gene TYMS (Gene 7298), cell cycle genes): -0.0037
UBD log2FC (gene UBD (10537), apoptosis genes): -0.00756
UBE2V2 log2FC (gene UBE2V2 (7336), apoptosis genes): -0.109
UNC13B log2FC (gene UNC13B (10497), apoptosis genes): 0.009
VDAC2 log2FC (gene VDAC2 (7417), apoptosis genes): 0.033
VIM log2FC (gene VIM (7431), apoptosis genes): 0.051
VIP log2FC (gene VIP (7432), apoptosis genes): -0.146
VNN1 log2FC (gene VNN1 (8876), apoptosis genes): 0.157
log2FC (gene VRK1 (Gene 7443), cell cycle genes): 0.426
WNK3 log2FC (gene WNK3 (65267), apoptosis genes): 0.012
log2FC (gene WTAP (Gene 9589), cell cycle genes): -0.387
log2FC (gene YY1AP1 (Gene 55249), cell cycle genes): 0.220
ZBTB16 log2FC (gene ZBTB16 (7704), apoptosis genes): 0.144
log2FC ZC3H12D (gene ZC3H12D (Gene 85313), cell cycle genes): -0.006
log2FC (gene ZC3HC1 (Gene 51530), cell cycle genes): 0.230
ZNF205 log2FC (gene ZNF205 (7755), apoptosis genes): -0.229
ZNF443 log2FC (gene ZNF443 (10224), apoptosis genes): -0.028
log2FC (gene ZNF503 (Gene 84858), cell cycle genes): -0.229
ZNF622 log2FC (gene ZNF622 (90441), apoptosis genes): 0.041
